{"source": "paper PMC6749073", "about": "(Frontiers in Pharmacology, 2019)", "key": {"[1]": {"test_system": "A549 cells", "assay": "Cell cycle by PI flow cytometry, A549", "type": "cell-based, human", "conditions": "diplatin 50 μM, DDP 5 μM, CBP 100 μM", "procedure": "(§1) Then, the cells were trypsinized, washed with PBS, and fixed in 1.5 ml 95% ethanol and left at 4°C overnight. They were then incubated with RNase and stained with propidium iodide (PI) (Multi Sciences Biotech Co., Ltd). PI absorbance was determined using a Cytomics FC500 Flow Cytometer (Beckman Coulter, USA)."}, "[2]": {"test_system": "A549 and H292 cells", "assay": "EdU incorporation assay", "type": "cell-based, human", "conditions": "48 h; diplatin 50 μM, DDP 5 μM, CBP 100 μM", "procedure": "Cell proliferation was analyzed by measurement of DNA synthesis as identified by the EdU cell proliferation assay, which was applied in accordance with product manufacturer instructions. Cells (5 × 10^4 cells per well) were cultured in triplicate in 24-well plates and treated with testing compounds for 48 h. Then the cells were incubated with 50 μM EdU for an additional 2 h at 37°C. Cells were fixed with 4% formaldehyde for 30 min and were permeabilized with 0.5% Triton X-100 for 10 min at room temperature. After washing with PBS three times, cells were incubated for 30 min with 1× Apollo reaction cocktail. Finally, cells were stained with 10 μg/ml of Hoechst 33342 for 30 min and then imaged using a confocal laser scanning microscope (FV1000; Olympus, Japan). The percentage of EdU^+ cells was quantified using ImageJ software by dividing the mean OD of EdU^+ cells to the mean OD of Hoechst-labeled cells."}, "[3]": {"test_system": "H292 xenograft tumor", "assay": "H292 xenograft tumor growth in nude mice", "type": "in vivo", "conditions": "120 mg/kg, tail vein every 3 days", "protocol": "(§7) Cells in logarithmic growth were washed with PBS and suspended in serum-free medium. Portions of the suspension (5 × 10^6 cells in 0.1 ml/mouse) were mixed at a 3:1 ratio with Matrigel basement membrane matrix and injected subcutaneously into the mice. Following 2 weeks of growth, tumor tissues were cut into multiple 2 × 2 × 2 mm^3 pieces and implanted using a range trocar subcutaneously (s.c. injection) into the left forepaw armpit of each mouse ([Jiang et al., 2017]). Treatment with pharmacology was started when the tumors reached an average volume of 100–200 mm^3. The mice were randomly divided into six groups (n = 14/group).\n(§8) Body weight and tumor size were assessed every 3 days. Tumor size was measured using a caliper, the volumes were calculated according to the following standard formula: V = (L × W^2)/2 (V = tumor volume, L = largest diameter of tumor, W = smallest diameter of tumor). On day 25, all mice were sacrificed by cervical dislocation, and the tumors were removed and weighed."}, "[4]": {"test_system": "A549", "assay": "MTT cell viability assay, A549", "type": "cell-based, human", "conditions": "48 h", "procedure": "(§2) Cells were seeded at a density of 1 × 10^4 cells per well in 96-well plates. The following day, these cells were washed with PBS and exposed to different concentrations of testing compounds in culture medium for 48 h. MTT solution (10 μl at 5 mg/ml) was added to each well. After 4 h of incubation at 37°C, the medium was removed, and the insoluble precipitate was dissolved in 100 μl DMSO (Sigma, St. Louis, MO, USA). The absorbance of the dissolved solution at 490 nm was measured using a microplate reader (TECAN A-5082; Megllan, Austria). Cell viability percentages were calculated by dividing the mean optical density (OD) of compound-containing wells by that of the control wells. Each experiment was replicated three times. The IC50 of testing drugs was calculated with Statistical Product and Service Solutions software (SPSS, version 16.0)."}, "[5]": {"test_system": "A549 xenograft tumors", "assay": "A549 xenograft tumor growth in nude mice", "type": "in vivo", "conditions": "30, 60, 120 mg/kg, tail vein every 3 days", "protocol": "as §7, §8"}, "[6]": {"test_system": "A549, NCI-H292, NCI-H460, and LTEP-A-2 xenograft models", "assay": "ED50 (50% reduction of xenograft tumor volume) in nude mice", "type": "in vivo", "conditions": "dose reducing xenograft tumor volume by 50%; average over A549, NCI-H292, NCI-H460, and LTEP-A-2 xenograft models", "procedure": "(§3) After injection, the animals’ condition was monitored every day for over 1 week by an observer who was blinded to the dose and drug allocation.\n(§4) Estimates for ED50 and LD50 were calculated through nonlinear regression, data were fitted to a sigmoidal dose-response relationship in Prism (version 4.0a; GraphPad Software, Inc., San Diego, CA). The data were fitted to the equation:\n(§5) Y=Ymin+Ymax−Ymin/1+10^(LogED50−X)∗HillSlope\n(§6) where X is the logarithm of concentration, and Y is the response."}, "[7]": {"test_system": "Calu-3", "assay": "MTT cell viability assay, Calu-3", "type": "cell-based, human", "conditions": "48 h", "procedure": "as §2"}, "[8]": {"test_system": "H292 cells", "assay": "Cell cycle by PI flow cytometry, H292", "type": "cell-based, human", "conditions": "diplatin 50 μM, DDP 5 μM, CBP 100 μM", "procedure": "as §1"}, "[9]": {"test_system": "HCC827", "assay": "MTT cell viability assay, HCC827", "type": "cell-based, human", "conditions": "48 h", "procedure": "as §2"}, "[10]": {"test_system": "JNK, Erk1/2 and p38 phosphorylation in A549 and H292 cells", "assay": "Western blot of MAPK phosphorylation (JNK, Erk1/2, p38)", "type": "cell-based, human", "procedure": "Cells were treated with diplatin, DDP, and CBP before being lysed. After centrifugation at 12,000 rpm for 10 min, an equal amount of protein from each group was subjected to electrophoresis on 10% SDS-PAGE gels. The proteins in the gel were then electroblotted onto polyvinylidene fluoride (PVDF) membranes (Millipore, Massachusetts, USA). After incubation in the blocking buffer (1× TBS, 0.1% Tween-20, and 5% w/v dry nonfat milk) for 1 h at room temperature, the membranes were incubated with the primary antibody at 4°C overnight. Next, membranes were rinsed with TBST, and then secondary antibodies were applied (LI-COR, USA) at room temperature for 1 h. Immunoreactive bands were visualized by a two-color infrared imaging system (Odyssey, LI-COR, USA)."}, "[11]": {"assay": "Biodistribution of Pt by atomic absorption spectrometry in A549 xenograft nude mice", "type": "in vivo", "conditions": "6 h after administration; diplatin 120 mg/kg vs CBP 70 mg/kg (equivalent Pt dose), i.v.", "procedure": "At each time point of 10 min, 2 h, 6 h, and 24 h after administration, six mice were sacrificed. The tumors, organs/tissues, and blood were immediately collected. Then, Pt concentration was measured by atomic absorption spectrometry, counting the weight/volume of the tumors, tissues, organs, or blood.\nAt each time point of 10 min, 2 h, 6 h and 24 h after administration, 6 mice were sacrificed. The tumors, organ/tissue, and blood were immediately collected. Then, Pt concentration was measured by atomic absorption spectrometry, counting the weight/volume of the tumors, tissues or organs/blood."}, "[12]": {"assay": "Pharmacokinetic and toxicokinetic characterization in Beagle dogs", "type": "in vivo", "conditions": "single dose 10, 20, 40 mg/kg", "excerpt": "Furthermore, AI was employed to evaluate the accumulated toxicity of the two complexes."}, "[13]": {"test_system": "A549/DDP xenograft tumor", "conditions": "diplatin 120 mg/kg vs DDP 6 mg/kg and CBP 60 mg/kg", "protocol": "as §7, §8"}, "[14]": {"test_system": "H1650", "assay": "MTT cell viability assay, H1650", "type": "cell-based, human", "conditions": "48 h", "procedure": "as §2"}, "[15]": {"test_system": "normal ICR mice", "assay": "LD50 in normal ICR mice", "type": "in vivo", "conditions": "tail vein injection", "procedure": "as §3, §4, §5, §6"}, "[16]": {"test_system": "H460 cells", "assay": "Cell cycle by PI flow cytometry, H460", "type": "cell-based, human", "conditions": "diplatin 50 µM, DDP 5 µM, CBP 100 µM", "procedure": "as §1"}, "[17]": {"test_system": "ICR mice", "assay": "General neurotoxicity observation in ICR mice", "type": "in vivo", "conditions": "i.v.", "excerpt": "The animals were observed daily for any evident symptoms of sickness. Changes in their appearance (e.g., kyphosis and altered grooming), behavior (altered nesting) and activity (altered exploring) were monitored for general neurotoxicity assessment."}, "[18]": {"test_system": "H292", "assay": "MTT cell viability assay, H292", "type": "cell-based, human", "conditions": "48 h", "procedure": "as §2"}, "[19]": {"test_system": "LTEP-A-2", "assay": "MTT cell viability assay, LTEP-A-2", "type": "cell-based, human", "conditions": "48 h", "procedure": "as §2"}}, "data": [{"smiles": "CCN(CC)CCCCC1C(=O)[O][Pt][O]C1=O.N[C@@H]1CCCC[C@H]1N.O=P(O)(O)O", "note": "[Diplatin]", "values": [{"measurement": "effect on cell cycle distribution", "setting": "[1]", "result": "significant accumulation of cells in G2/M phase"}, {"measurement": "EdU incorporation", "setting": "[2]", "result": "dramatically decreased"}, {"measurement": "inhibition of H292 xenograft tumor growth", "setting": "[3]", "result": 65.0, "unit": "%"}, {"measurement": "IC50", "setting": "[4]", "result": 102, "unit": "µM"}, {"measurement": "effect on growth of A549 xenograft tumors", "setting": "[5]", "result": "dose-dependently inhibited the growth"}, {"measurement": "Mice ED50", "setting": "[6]", "result": 52.0, "unit": "mg/kg"}, {"measurement": "IC50", "setting": "[7]", "result": 161, "unit": "µM"}, {"measurement": "effect on cell cycle distribution", "setting": "[8]", "result": "failed to arrest any portion of the cell cycle"}, {"measurement": "IC50", "setting": "[9]", "result": 25, "unit": "µM"}, {"measurement": "concentration of apparent maximum JNK phosphorylation", "setting": "[10]; 0.5 h exposure", "result": 25, "unit": "µM"}, {"measurement": "Erk1/2 and p38 phosphorylation", "setting": "[10]; diplatin 10, 25, 50 μM, DDP 5 μM, CBP 100 μM", "result": "failed to induce Erk1/2 and p38 phosphorylation"}, {"measurement": "JNK phosphorylation levels", "setting": "[10]; diplatin 10–50 μM, DDP 10 μM, 0.5 h", "result": "elevated"}, {"measurement": "Pt accumulation in the kidneys, times higher than CBP", "setting": "[11]", "result": 2.2, "unit": "times"}, {"measurement": "time of maximum platinum levels in the plasma", "setting": "[12]", "result": 0.33, "unit": "h"}, {"measurement": "antitumor activity in A549/DDP xenograft tumor", "setting": "[13]", "result": "more potent antitumor activities than DDP and CBP"}, {"measurement": "IC50", "setting": "[14]", "result": 36.6, "unit": "µM"}, {"measurement": "Mice LD50", "setting": "[15]", "result": 496, "unit": "mg/kg"}, {"measurement": "effect on cell cycle distribution", "setting": "[16]", "result": "failed to arrest the cells in the G2/M phase"}, {"measurement": "animals showing signs of mild kyphosis and piloerection", "setting": "[17]; 240 mg/kg twice a week for 4 weeks", "result": "approximately 20%"}, {"measurement": "changes in behavior (altered nesting) and activity (altered exploring)", "setting": "[17]; 60, 120, or 240 mg/kg twice a week for 4 weeks", "result": "no notable changes"}, {"measurement": "IC50", "setting": "[18]", "result": 30.9, "unit": "µM"}, {"measurement": "IC50", "setting": "[19]", "result": 24.6, "unit": "µM"}]}]}
